Test results taken from patent US20260217708A1, “FUSED BENZAZEPINE DERIVATIVES FOR USE IN THE TREATMENT OF CANCER AND EPILEPSY” (UCB BIOPHARMA SRL, priority 2023, published 2026).

What was measured:
[1] = target: T1, system Xc^− (Homo sapiens, UniProt Q9UPY5); experiment: Cystine-induced glutamate release assay; assay type: cell-based; set-up: endogenous in cells; host or cells: H4 cells; details: H4 cells, sodium-free HEPES buffer, 50 μM L-Cystine, 2 hours, Amplex Red glutamate readout; read-out: pIC50 Cystine-induced glutamate release assay (converted)
T1 sequence (Q9UPY5 1-501): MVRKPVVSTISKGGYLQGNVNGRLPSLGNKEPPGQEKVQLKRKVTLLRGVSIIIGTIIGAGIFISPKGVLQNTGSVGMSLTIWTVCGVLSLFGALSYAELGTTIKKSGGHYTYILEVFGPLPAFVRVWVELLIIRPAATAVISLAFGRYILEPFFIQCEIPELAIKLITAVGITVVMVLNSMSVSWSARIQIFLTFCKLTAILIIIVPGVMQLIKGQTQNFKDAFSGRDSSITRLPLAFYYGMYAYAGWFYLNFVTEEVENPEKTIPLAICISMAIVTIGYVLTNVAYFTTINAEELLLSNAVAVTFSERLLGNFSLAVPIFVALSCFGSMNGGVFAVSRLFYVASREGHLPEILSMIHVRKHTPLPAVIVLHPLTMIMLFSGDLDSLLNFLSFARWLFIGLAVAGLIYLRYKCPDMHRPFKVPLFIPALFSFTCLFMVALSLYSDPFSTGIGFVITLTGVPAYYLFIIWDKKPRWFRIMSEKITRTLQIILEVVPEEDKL
T1 sequence (P08195 1-529 partner): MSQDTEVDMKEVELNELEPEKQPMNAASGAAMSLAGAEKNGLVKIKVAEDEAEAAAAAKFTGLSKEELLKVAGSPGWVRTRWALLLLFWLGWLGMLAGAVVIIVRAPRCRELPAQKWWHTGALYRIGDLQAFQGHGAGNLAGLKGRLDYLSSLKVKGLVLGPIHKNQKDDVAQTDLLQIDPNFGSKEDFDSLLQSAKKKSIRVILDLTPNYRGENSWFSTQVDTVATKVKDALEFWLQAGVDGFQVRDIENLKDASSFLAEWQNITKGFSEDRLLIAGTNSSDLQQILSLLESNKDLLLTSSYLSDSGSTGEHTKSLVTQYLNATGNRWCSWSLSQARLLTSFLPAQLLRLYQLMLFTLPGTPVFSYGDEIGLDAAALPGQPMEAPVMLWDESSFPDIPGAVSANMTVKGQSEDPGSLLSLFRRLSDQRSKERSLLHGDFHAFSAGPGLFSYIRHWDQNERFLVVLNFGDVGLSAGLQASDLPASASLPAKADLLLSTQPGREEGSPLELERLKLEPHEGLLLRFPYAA
Method in brief: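 H4 cells in sodium-free HEPES buffer (pH 7.4), 2 days after plating; glutamate release induced with 50 μM L-cystine plus compound (1% DMSO), 2 h at 37 °C. Supernatant glutamate measured by Amplex Red fluorescence; IC50/pIC50 derived between 1% DMSO and 50 μM erastin controls.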

[2] = target: T1, system Xc^−; experiment: [^14C]L-Cystine uptake assay; assay type: cell-based; set-up: endogenous in cells; host or cells: H4 cells; details: H4 cells, sodium-free HEPES buffer, 0.5 μM L-[14C]Cystine and 4.5 μM L-Cystine, 1 hour at 37° C.; read-out: pIC50 [^14C] L-Cystine uptake assay (converted)
Method in brief: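 H4 cells at 5×10^4 cells/well in sodium-free HEPES buffer were preincubated 15 min with compounds (1% DMSO). Uptake of 0.5 μM [14C]L-cystine plus 4.5 μM unlabelled L-cystine ran 1 hour at 37° C on scintillating plates. IC50 was set between 1% DMSO and 50 μM Erastin controls and expressed as pIC50.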

SMILES | IC50 [1] | IC50 [2]
Cc1cc2c(c(F)n1)-c1sccc1CC(=O)N2CC(=O)Nc1ccc(C(F)(F)F)cc1 [#42, 2-(14-fluoro-12-meth-yl-8-oxo-3-thia-9,13-diazatricyclo[8.4.0.0^2,6]tetradeca-1(10),2(6), 4,11,13-pentaen-9-yl)-N-[4-(trifluorometh-yl)phenyl]acetamide] | 39.8 to 100 nM | 39.8 to 100 nM
CC1C(=O)N(CC(=O)Nc2ccc(C(F)F)cc2)c2cc(Cl)cc(F)c2-c2cncnc21 (single isomer, unassigned) [#313, 2-[9-chloro-11-fluoro-5-methyl-6-oxo-5H-pyrimido[4,5-d][1]benzazepin-7-yl]-N-[4-(difluoromethyl)phenyl]acetamide] | < 15.8 nM | 15.8 to 39.8 nM
Cc1cc2c(c(F)n1)-c1cccnc1[C@@H](C)C(=O)N2CC(=O)Nc1ccc(C(F)(F)F)cc1 (single isomer, unassigned) [#192] | < 15.8 nM | < 15.8 nM
Cc1cc2c(cn1)-c1cc(Cl)ccc1CC(=O)N2CC(=O)Nc1ccc(C(F)(F)F)cc1 [#30, 2-(10-chloro-3-methyl-6-oxo-7H-pyrido[4,3-d][3]benzazepin-5-yl)-N-[4-(trifluoro-methyl)phenyl] acetamide] | 100 to 501 nM | < 15.8 nM
Cc1cc2c(c(=O)[nH]1)-c1ccccc1C(C)C(=O)N2CC(=O)Nc1ccc(C(F)(F)F)cc1 (stereo not shown) [#156, 2-(3,7-dimethyl-1,6-dioxo-2,7-dihydropyrido[4,3-d][3]benzazepin-5-yl)-N-[4-(trifluoromethyl)phenyl]acetamide] | 15.8 to 39.8 nM | 39.8 to 100 nM

Continued, values first:

IC50 [1] | IC50 [2] | SMILES
< 15.8 nM | < 15.8 nM | CC1C(=O)N(CC(=O)Nc2ccc(C(F)F)cc2)c2cc(N3CC(C)(O)C3)nc(F)c2-c2cccnc21 (single isomer, unassigned) [#275, N-[4-(difluoromethyl)phenyl]-2-[3-fluoro-5-(3-hydroxy-3-methyl-azetidin-1-yl)-10-methyl-9-oxo-4,8,12-triazatricyclo[9.4.0.0^2,7]pentadeca-1(15),2,4,6,11,13-hexaen-8-yl]acetamide]
100 to 501 nM | 100 to 501 nM | Cc1cc2c(c(N)n1)-c1cccnc1CC(=O)N2CC(=O)Nc1ccc(C(F)(F)F)cc1 [#103, 2-(3-amino-5-methyl-9-oxo-4,8,12-triazatricyclo[9.4.0.0^2,7]pentadeca-1(11),2(7),3,5,12,14-hexaen-8-yl)-N-[4-(trifluoromethyl)phenyl]acetamide]
15.8 to 39.8 nM | 39.8 to 100 nM | CC1C(=O)N(CC(=O)Nc2ccc(C(F)F)cc2)c2ccnc(Cl)c2-c2cccnc21 (single isomer, unassigned) [#398, N-[4-(difluoromethyl)phenyl]-2-[3-chloro-10-methyl-9-oxo-4,8,12-triazatricyclo[9.4.0.0^2,7]pentadeca-1(11),2(7),3,5,12,14-hexaen-8-yl]acetamide]
39.8 to 100 nM | 39.8 to 100 nM | CC1C(=O)N(CC(=O)Nc2ccc(C(F)(F)F)cc2)c2cc(F)c(=O)n(C)c2-c2cccnc21 (stereo not shown) [#185, 2-(5-fluoro-3,10-dimethyl-4,9-dioxo-3,8,12-triazatricyclo[9.4.0.0^2,7]pentadeca-1(11),2(7),5,12,14-pentaen-8-yl)-N-[4-(trifluoromethyl)phenyl]acetamide]
< 15.8 nM | 15.8 to 39.8 nM | CC1C(=O)N(CC(=O)Nc2ccc(Cl)c(F)c2)c2cc(F)cc(F)c2-c2cncnc21 (single isomer, unassigned) [#372, N-(4-chloro-3-fluoro-phenyl)-2-[9,11-difluoro-5-methyl-6-oxo-5H-pyrimido[4,5-d][1]benzazepin-7-yl]acetamide]
100 to 501 nM | 100 to 501 nM | O=C(CN1C(=O)Cc2ccccc2-c2cnccc21)Nc1ccc(C(F)(F)F)cc1 [#17, 2-(6-oxo-7H-pyrido [4,3-d][3]benzazepin-5-yl)-N-[4-(trifluoro-methyl)phenyl] acetamide]
